“And” between values parts separate entries of the source, which are not always exact repeats. Equal entries are not always repeated.
Key:
[1] = in toluene
[2] = in toluene; remark: listed apart in the source
[3] = depending on the solvent
Protocol: (§2) Luminescence lifetimes were measured with an IBH time-correlated single photon counting (TCSPC) system equipped with an IBH Model TBX-04 Photon Detection Module. The excitation source for the TCSPC measurements was a pulsed LED (IBH NanoLED, 455 nm, 1.3 ns pulse duration or 403 nm, <200 ps pulse duration) with a repetition rate of 1 MHz. All data was analyzed by iterative reconvolution of the decay profile (10,000 counts at the peak channel) with the instrument response function using software provided by the instrument manufacturer.

[4] = Absorption spectra of anthracene diimides in solvents of increasing polarity (Example 1); format: physicochemical
[5] = Emission spectra of anthracene diimides at room temperature (Example 1); format: physicochemical; settings: for Em. λmax: (p) peak, (s) shoulder
Protocol: (§1) Unless otherwise stated, all experiments used optically dilute solutions (Optical Density (OD)<0.2) at room temperature. […] Emission spectra were obtained with an Aminco-Bowman luminescence spectrometer (Series 2). The excitation was accomplished with a 150 W Xe lamp optically coupled to a monochrometer (+2 nm). The emission was collected at […] and passed through a second monochrometer (±2 nm). Luminescence was measured with a photomultiplier tube (PMT).

[6] = Luminescence lifetime by TCSPC (Example 1); format: physicochemical; settings: for 1τ: TCSPC 370 nm pulsed LED
Protocol: as §2

[7] = Radiative quantum yield against standards (Example 1); format: physicochemical
Protocol: as §1

[8] = Sub-ambient (77 K) emission in 2-methyltetrahydrofuran; format: physicochemical; settings: for emission bands: 2-methyltetrahydrofuran, 405 nm excitation
Protocol: FIGS. 7a and 7b show normalized emission spectra for the diphenyl anthracene diimides (top) and the tetraphenyl anthracene diimides (bottom) at 77° K in 2-methyltetrahydrofuran and 405 nm excitation.
In an attempt to better understand the excited state properties of the diphenyl and tetraphenyl anthracene diimides, sub-ambient (77 K) emission experiments were performed, with the results shown in FIGS. 7a and 7b. In the case of the diphenyl derivatives, DPO (35), DP (37), and DC (39) display similar emission spectra with overlapping bands near 434 nm, […], and 492 nm. Although the peak ratios differ slightly, the band shapes and positions are nearly identical. […] Similar results are observed for the tetraphenyl series. Here, TPO (40) and TP (41) display spectral features analogous to DPO (35), DP (37), and DC (39), but at lower energy.

[9] = Stokes shift / Lippert-Mataga solvatochromic analysis; format: physicochemical
Source text: The solvatochromic response of the anthracene diimides to photoexcitation was further characterized by analysis of the Stokes' shift and Lippert-Mataga polarity parameter,
where v is the Stokes' shift in wavenumbers, h is Plank's constant, c is the speed of light, ∈0 is the permittivity of free space, Δμ is the change in the dipole moment upon excitation, α^3 is the molecule's volume, as is the solvent dielectric constant, and n is the solvent refractive index. This relationship quantifies the change in dipole between the ground state and excited state of a molecule and, when used with the calculated ground state dipole, the magnitude of the excited state dipole moment may be estimated. Each line represents a solvatochromic emission component of the corresponding diimide. All other bands were not solvatochromic and not included in the analysis. For example, the emission spectra of DPO (35) in the selection of solvents were nearly identical and could not be used in the Lippert-Mataga correlations. DP (37) had two components in the emission profiles; a higher energy band that quickly disappeared with increasing solvent polarity and a lower energy component that red-shifted with increasing solvent polarity.

Compound	Abs. λmax ([4]; ACN (38.8)) [nm]	Abs. λmax ([4]; Acetone (20.1)) [nm]	Abs. λmax ([4]; C2H4Cl2 (10.7)) [nm]	Abs. λmax ([4]; CHCl3 (4.8)) [nm]	Abs. λmax ([4]; Ethyl Acetate (6.02)) [nm]	Abs. λmax ([4]; THF (7.6)) [nm]	Abs. λmax ([4]; Toluene (2.4)) [nm]	Em. λmax ([5]; Acetone (20.1))	Em. λmax ([5]; C2H4Cl2 (10.7))	Em. λmax ([5]; CHCl3 (4.8))	Em. λmax ([5]; Ethyl Acetate (6.02))	Em. λmax ([5]; THF (7.6))	Em. λmax ([5]; Toluene (2.4))	1τ ([6]; Toluene (2.4)) [ns]	Φr ([7]; Acetone (20.1))	Φr ([7]; C2H4Cl2 (10.7))	Φr ([7]; CHCl3 (4.8))	Φr ([7]; Ethyl Acetate (6.02))	Φr ([7]; THF (7.6))	Φr ([7]; Toluene (2.4))	also measured
N,N′-Bis(methyl 18-crown-6)-1,5-bis(phenyl)anthracene-2,3,6,7-tetracarboxyl diimide	–	–	–	–	–	–	–	–	–	–	–	–	–	–	–	–	–	–	–	–	extinction coefficient, ∈ [1]: 12,500 M^−1 cm^−1; quantum yield, Φ [2]: 0.37; lifetime (single exponential) [3]: 5.5-6.5 ns
N,N′-Bis(m-(boronic acid)phenyl)-1,5-bis(phenyl)anthracene-2,3,6,7-tetracarboxyl diimide	–	–	–	–	–	–	–	–	–	–	–	–	–	–	–	–	–	–	–	–	lifetime (single exponential) [3]: 5-5.5 ns
CCCCCCCCn1c(=O)c2c(-c3ccccc3)c3cc4c(-c5ccccc5)c5c(=O)n(CCCCCCCC)c(=O)c5c(-c5ccccc5)c4cc3c(-c3ccccc3)c2c1=O [TPO]	428	427	430	432	426	427	428	443(p) nm and 466(p) nm	445(p) nm and 470(p) nm	447(p) nm and 471(p) nm	442(p) nm and 465(p) nm	445(p) nm and 467(p) nm	447(p) nm and 468(p) nm	2.77	0.21	0.23	0.26	0.21	0.20	0.19	Em. λmax ([5]; ACN (38.8)): 443(p) nm and 468(p) nm; emission band position ([5]; room temperature, all solvents): ~428 nm; 1τ ([6]; ACN (38.8)): 3.84 ns; 1τ ([6]; Acetone (20.1)): 3.34 ns; 1τ ([6]; C2H4Cl2 (10.7)): 3.19 ns; 1τ ([6]; CHCl3 (4.8)): 3.54 ns; 1τ ([6]; Ethyl Acetate (6.02)): 3.12 ns; 1τ ([6]; THF (7.6)): 3.03 ns; Φr ([7]; ACN (38.8)): 0.24
CCCCCCCCn1c(=O)c2cc3cc4c(-c5ccccc5)c5c(=O)n(CCCCCCCC)c(=O)c5cc4cc3c(-c3ccccc3)c2c1=O [DPO]	423	421	424	426	420	421	422	435(p) nm	436(p) nm	437(p) nm	433(p) nm	435(p) nm	437(p) nm	6.36	0.37	0.46	0.36	0.34	0.37	0.35	Em. λmax ([5]; ACN (38.8)): 435(p) nm; 1τ ([6]; ACN (38.8)): 8.03 ns; 1τ ([6]; Acetone (20.1)): 7.29 ns; 1τ ([6]; C2H4Cl2 (10.7)): 5.60 ns; 1τ ([6]; CHCl3 (4.8)): 5.79 ns; 1τ ([6]; Ethyl Acetate (6.02)): 6.90 ns; 1τ ([6]; THF (7.6)): 6.71 ns; Φr ([7]; ACN (38.8)): 0.46; emission bands ([8]; listed as DPO (35)): ~434 nm and ~461 nm and ~492 nm
CCCCCCOc1ccc(-n2c(=O)c3cc4cc5c(-c6ccccc6)c6c(=O)n(-c7ccc(OCCCCCC)cc7)c(=O)c6cc5cc4c(-c4ccccc4)c3c2=O)cc1 [DP]	–	423	426	428	421	422	422	500(s) nm and 584(p) nm	502(s) nm and 557(p) nm	536(p) nm and 501(p) nm	500(s) nm and 555(p) nm	502(s) nm and 562(p) nm	497(p) nm and 525(p) nm	0.62	0.0082	0.020	0.028	0.015	0.017	0.066	1τ ([6]; Acetone (20.1)): <0.20 ns; 1τ ([6]; C2H4Cl2 (10.7)): <0.20 ns; 1τ ([6]; CHCl3 (4.8)): 0.38 ns; 1τ ([6]; Ethyl Acetate (6.02)): <0.20 ns; 1τ ([6]; THF (7.6)): <0.20 ns; lifetime ([6]; in ethyl acetate and solvents of higher polarity): below 200 ps; lifetime ([6]; in toluene): 620 ps; Φr ([7]; Toluene (2.4), listed as DP (37)): 0.18; slope of Lippert plot ([9]; second (lower energy) emission component, R^2=0.99): 6,600.2 cm^−1; emission bands ([8]; listed as DP (37)): ~434 nm and ~461 nm and ~492 nm
CCCCCCOc1ccc(-n2c(=O)c3c(-c4ccccc4)c4cc5c(-c6ccccc6)c6c(=O)n(-c7ccc(OCCCCCC)cc7)c(=O)c6c(-c6ccccc6)c5cc4c(-c4ccccc4)c3c2=O)cc1 [TP]	431	429	435	435	428	429	431	454(p) nm and 576(p) nm	450(p) nm and 478(p) nm and 497(p) nm and 549(p) nm	450(p) nm and 482(p) nm and 564(p) nm	448(s) nm and 499(s) nm and 549(p) nm	459(s) nm and 499(s) nm and 552(p) nm	482(p) nm and 520(s) nm	1.03	0.011	0.029	0.08	0.023	0.027	0.21	Em. λmax ([5]; ACN (38.8)): 456(p) nm and 474(s) nm and 585(p) nm; Em. λmax ([5]; Toluene (2.4), listed as TP (41)): ~431 nm; Φr ([7]; ACN (38.8)): 0.0080
CCCCCCOc1ccc(-n2c(=O)c3cc4cc5c(-c6ccc(C#N)cc6)c6c(=O)n(-c7ccc(OCCCCCC)cc7)c(=O)c6cc5cc4c(-c4ccc(C#N)cc4)c3c2=O)cc1 [DC]	423	423	425	425	418	420	417	599(p) nm	571(p) nm	555(p) nm and 504(s) nm	573(p) nm	579(p) nm	505(s) nm and 543(p) nm	0.39	0.0062	0.017	0.025	0.012	0.013	0.046	Em. λmax ([5]; ACN (38.8)): 600(p) nm; 1τ ([6]; ACN (38.8)): <0.20 ns; 1τ ([6]; Acetone (20.1)): <0.20 ns; 1τ ([6]; C2H4Cl2 (10.7)): 0.21 ns; 1τ ([6]; CHCl3 (4.8)): 0.27 ns; 1τ ([6]; Ethyl Acetate (6.02)): <0.20 ns; 1τ ([6]; THF (7.6)): <0.20 ns; Φr ([7]; ACN (38.8)): 0.0051; calculated dipole change (Δμ) ([9]; Lippert-Mataga correlation): 31.1 D; Stokes' shift of charge transfer excited state ([9]; from toluene to acetonitrile): 95 nm; emission bands ([8]; listed as DC (39)): ~434 nm and ~461 nm and ~492 nm
CCCCCCOc1ccc(-n2c(=O)c3cc4cc5c(-c6ccc(OC)cc6)c6c(=O)n(-c7ccc(OCCCCCC)cc7)c(=O)c6cc5cc4c(-c4ccc(OC)cc4)c3c2=O)cc1 [DM]	427	426	430	431	425	426	428	463(p) nm and 492(p) nm and 554(p) nm	463(p) nm and 490(s) nm and 526(p) nm	491(s) nm and 465(p) nm	463(p) nm and 488(p) nm and 526(p) nm	463(p) nm and 494(p) nm and 538(p) nm	462(p) nm and 488(s) nm	1.25	0.011	0.030	0.064	0.028	0.021	0.18	Em. λmax ([5]; ACN (38.8)): 463(p) nm and 487(s) nm and 551(p) nm; 1τ ([6]; C2H4Cl2 (10.7)): 0.34 ns; 1τ ([6]; CHCl3 (4.8)): 0.59 ns; Φr ([7]; ACN (38.8)): 0.0087; red shift of emission spectrum ([8]; relative to the other members of the series): 13 nm

Reference: patent US20080242870A1 (priority 2006, published 2008)
